Laboratory results published in patent US9156856B2, “Apoptosis-inducing agents for the treatment of cancer and immune and autoimmune diseases” (AbbVie Inc., priority 2009, dated 2015).

Molecular target: Bcl-2 (Homo sapiens (Human), UniProt P10415)
Assay: Time Resolved-Fluorescence Resonance Energy Transfer (TR-FRET) Bcl-2 binding assay with F-Bak peptide probe
Conditions: GST-Bcl-2 1 nM, F-Bak peptide probe 100 nM, Tb-anti-GST antibody 1 nM; Ki by Wang's equation
Protocol: Determination of the utility of compounds having Formula (I) as binders to and inhibitors of anti-apoptotic Bcl-2 proteins was performed using the Time Resolved-Fluorescence Resonance Energy Transfer (TR-FRET) Assay. Tb-anti-GST antibody was purchased from Invitrogen (Catalog No. PV4216).
Representative compounds were serially diluted in dimethyl sulfoxide (DMSO) starting at 50 μM (2× starting concentration; 10% DMSO) and 10 μL were transferred into a 384-well plate. The samples are then mixed on a shaker for 1 minute and incubated for an additional 3 hours at room temperature. For each assay, the probe/antibody and protein/probe/antibody were included on each assay plate as negative and positive controls, respectively. Fluorescence was measured on the ENVISION plate reader (Perkin Elmer) using a 340/35 nm excitation filter and 520/525 (F-Bak peptide) and 495/510 nm (Tb-labeled […] antibody) emission filters Inhibition constants (Ki) are shown in TABLE 2 below and were determined using Wang's equation (Wang Z.-X. An Exact Mathematical Expression For Describing Competitive Binding Of Two Different Ligands To A Protein Molecule. FEBS Lett. 1995, 360:111-4).
The inhibition constant (Ki) is the dissociation constant of an enzyme-inhibitor complex or a protein/small molecule complex, wherein the small molecule is inhibiting binding of one protein to another protein. So a large K, value indicates a low binding affinity and a small Ki value indicates a high binding affinity.
The compounds are therefore expected to have utility in treatment of diseases during which anti-apoptotic Bcl-2 protein is expressed.

Bcl-2, sequence (P10415 whole entry): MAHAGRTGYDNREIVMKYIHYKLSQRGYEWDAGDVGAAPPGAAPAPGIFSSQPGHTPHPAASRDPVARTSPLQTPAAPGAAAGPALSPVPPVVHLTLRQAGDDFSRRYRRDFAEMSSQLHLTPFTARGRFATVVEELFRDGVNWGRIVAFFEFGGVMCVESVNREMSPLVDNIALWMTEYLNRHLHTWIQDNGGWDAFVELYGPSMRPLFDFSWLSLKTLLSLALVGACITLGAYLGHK

| SMILES | Ki [nM] |
| --- | --- |
| Cc1c(S(=O)(=O)NC(=O)c2ccc(N3CCN(Cc4ccccc4-c4ccc(Cl)cc4)CC3)cc2)sc2ccc(F)cc12 [Example 17, 4-{4-[(4′-chloro-1,1′-biphenyl-2-yl)methyl]piperazin-1-yl}-N-[(5-fluoro-3-methyl-1-benzothien-2-yl)sulfonyl]benzamide] | 356 |
| CC(C)N(C)CC[C@H](CSc1ccccc1)Nc1sc(S(=O)(=O)NC(=O)c2ccc(N3CCN(CC4=C(c5ccc(Cl)cc5)CCC(C)(C)C4)CC3)cc2)cc1[N+](=O)[O-] [Example 9, 4-(4-{[2-(4-chlorophenyl)-5,5-dimethylcyclohex-1-en-1-yl]methyl}piperazin-1-yl)-N-{[5-({(1R)-3-[isopropyl(methyl)amino]-1-[(phenylthio)methyl]propyl}amino)-4-nitrothien-2-yl]sulfonyl}benzamide] | 0.307 |
| CC(=O)Nc1nc(C)c(S(=O)(=O)NC(=O)c2ccc(N3CCN(Cc4ccccc4-c4ccc(Cl)cc4)CC3)cc2)s1 [Example 11, N-{[2-(acetylamino)-4-methyl-1,3-thiazol-5-yl]sulfonyl}-4-{4-[(4′-chloro-1,1′-biphenyl-2-yl)methyl]piperazin-1-yl}benzamide] | 177 |
| O=C(NS(=O)(=O)c1ccc(/C=C/c2ncon2)s1)c1ccc(N2CCN(Cc3ccccc3-c3ccc(Cl)cc3)CC2)cc1 [Example 26, 4-{4-[(4′-chloro-1,1′-biphenyl-2-yl)methyl]piperazin-1-yl}-N-({5-[(E)-2-(1,2,4-oxadiazol-3-yl)vinyl]thien-2-yl}sulfonyl)benzamide] | 393 |
| Cc1cc(C)n2nc(S(=O)(=O)NC(=O)c3ccc(N4CCN(CC5=C(c6ccc(Cl)cc6)CC(C)(C)CC5)CC4)cc3Oc3cc4cc[nH]c4c(F)c3F)nc2n1 [Example 42, 4-(4-{[2-(4-chlorophenyl)-4,4-dimethylcyclohex-1-en-1-yl]methyl}piperazin-1-yl)-2-[(6,7-difluoro-1H-indol-5-yl)oxy]-N-[(5,7-dimethyl[1,2,4]triazolo[1,5-a]pyrimidin-2-yl)sulfonyl]benzamide] | 0.039 |
| Cc1cc(C)n2nc(S(=O)(=O)NC(=O)c3ccc(N4CCN(CC5=C(c6ccc(Cl)cc6)CC(C)(C)CC5)CC4)cc3Oc3cccc(Cl)c3)nc2n1 [Example 40, 2-(3-chlorophenoxy)-4-(4-{[2-(4-chlorophenyl)-4,4-dimethylcyclohex-1-en-1-yl]methyl}piperazin-1-yl)-N-[(5,7-dimethyl[1,2,4]triazolo[1,5-a]pyrimidin-2-yl)sulfonyl]benzamide] | 0.407 |
| COC(=O)c1ccc(S(=O)(=O)NC(=O)c2ccc(N3CCN(Cc4ccccc4-c4ccc(Cl)cc4)CC3)cc2)n1C [Example 22, methyl 5-{[(4-{4-[(4′-chloro-1,1′-biphenyl-2-yl)methyl]piperazin-1-yl}benzoyl)amino]sulfonyl}-1-methyl-1H-pyrrole-2-carboxylate] | 188 |
| Cc1nc(OC[C@@H]2CN(C(=O)OC(C)(C)C)CCO2)sc1S(=O)(=O)NC(=O)c1ccc(N2CCN(CC3=C(c4ccc(Cl)cc4)CC(C)(C)CC3)CC2)cc1Oc1cccc2[nH]cnc12 [Example 44, tert-butyl (2S)-2-{[(5-{[2-(1H-benzimidazol-4-yloxy)-4-(4-{[2-(4-chlorophenyl)-4,4-dimethylcyclohex-1-en-1-yl]methyl}piperazin-1-yl)benzoyl]sulfamoyl}-4-methyl-1,3-thiazol-2-yl)oxy]methyl}morpholine-4-carboxylate] | 24.8 |
| O=C(NS(=O)(=O)c1c(Cl)nc2sccn12)c1ccc(N2CCN(Cc3ccccc3-c3ccc(Cl)cc3)CC2)cc1 [Example 13, 4-{4-[(4′-chloro-1,1′-biphenyl-2-yl)methyl]piperazin-1-yl}-N-[(6-chloroimidazo[2,1-b][1,3]thiazol-5-yl)sulfonyl]benzamide] | 388 |
| O=C(NS(=O)(=O)c1csc(C(F)(F)F)c1-c1ccccc1)c1ccc(N2CCN(Cc3ccccc3-c3ccc(Cl)cc3)CC2)cc1 [Example 16, 4-{4-[(4′-chloro-1,1′-biphenyl-2-yl)methyl]piperazin-1-yl}-N-{[4-phenyl-5-(trifluoromethyl)thien-3-yl]sulfonyl}benzamide] | 37.9 |
| CN(C)CCCNc1sc(S(=O)(=O)NC(=O)c2ccc(N3CCN(CC4=C(c5ccc(Cl)cc5)CC(C)(C)CC4)CC3)cc2Oc2ccc3[nH]ccc3c2)cc1[N+](=O)[O-] [Example 34, 4-(4-{[2-(4-chlorophenyl)-4,4-dimethylcyclohex-1-en-1-yl]methyl}piperazin-1-yl)-N-[(5-{[3-(dimethylamino)propyl]amino}-4-nitrothien-2-yl)sulfonyl]-2-(1H-indol-5-yloxy)benzamide] | 1.79 |
| Cc1c(S(=O)(=O)NC(=O)c2ccc(N3CCN(Cc4ccccc4-c4ccc(Cl)cc4)CC3)cc2Oc2ccccc2)sc2ccc(Cl)cc12 [Example 39, 4-{4-[(4′-chloro-1,1′-biphenyl-2-yl)methyl]piperazin-1-yl}-N-[(5-chloro-3-methyl-1-benzothien-2-yl)sulfonyl]-2-phenoxybenzamide] | 20.2 |
| O=C(NCc1ccc(S(=O)(=O)NC(=O)c2ccc(N3CCN(Cc4ccccc4-c4ccc(Cl)cc4)CC3)cc2)s1)c1ccccc1 [Example 12, N-({5-[(benzoylamino)methyl]thien-2-yl}sulfonyl)-4-{4-[(4′-chloro-1,1′-biphenyl-2-yl)methyl]piperazin-1-yl}benzamide] | 393 |
| COC1(Cc2cccc(C)c2)CCN(c2ccc(C(=O)NS(=O)(=O)c3cc([N+](=O)[O-])c(N[C@H](CCN(C)C)CSc4ccccc4)s3)cc2)CC1 [Example 2, N-{[5-({(1R)-3-(dimethylamino)-1-[(phenylthio)methyl]propyl}amino)-4-nitrothien-2-yl]sulfonyl}-4-[4-methoxy-4-(3-methylbenzyl)piperidin-1-yl]benzamide] | 82.9 |
| Cc1nc(OC[C@@H]2CN(C(=O)OC(C)(C)C)CCO2)sc1S(=O)(=O)NC(=O)c1ccc(N2CCN(CC3=C(c4ccc(Cl)cc4)CC(C)(C)CC3)CC2)cc1Oc1cnc2[nH]ccc2c1 [Example 43, tert-butyl (2S)-2-{[(5-{[4-(4-{[2-(4-chlorophenyl)-4,4-dimethylcyclohex-1-en-1-yl]methyl}piperazin-1-yl)-2-(1H-pyrrolo[2,3-b]pyridin-5-yloxy)benzoyl]sulfamoyl}-4-methyl-1,3-thiazol-2-yl)oxy]methyl}morpholine-4-carboxylate] | 46.5 |
| CC(C)N(C)CC[C@H](CSc1ccccc1)Nc1sc(S(=O)(=O)NC(=O)c2ccc(N3CCN(CC4=C(c5ccc(Cl)cc5)CCCC4)CC3)cc2)cc1[N+](=O)[O-] [Example 8, 4-(4-{[2-(4-chlorophenyl)cyclohex-1-en-1-yl]methyl}piperazin-1-yl)-N-{[5-({(1R)-3-[isopropyl(methyl)amino]-1-[(phenylthio)methyl]propyl}amino)-4-nitrothien-2-yl]sulfonyl}benzamide] | 0.064 |
| Cc1nc(C)c(S(=O)(=O)NC(=O)c2ccc(N3CCN(Cc4ccccc4-c4ccc(Cl)cc4)CC3)cc2)s1 [Example 15, 4-{4-[(4′-chloro-1,1′-biphenyl-2-yl)methyl]piperazin-1-yl}-N-[(2,4-dimethyl-1,3-thiazol-5-yl)sulfonyl]benzamide] | 282 |
| Cc1nn(CCCl)c(C)c1S(=O)(=O)NC(=O)c1ccc(N2CCN(Cc3ccccc3-c3ccc(Cl)cc3)CC2)cc1 [Example 27, 4-{4-[(4′-chloro-1,1′-biphenyl-2-yl)methyl]piperazin-1-yl}-N-{[1-(2-chloroethyl)-3,5-dimethyl-1H-pyrazol-4-yl]sulfonyl}benzamide] | 434 |
| CC(=O)N(CCSc1ccccc1)C1CCN(S(=O)(=O)NC(=O)c2ccc(N3CCN(Cc4ccccc4-c4ccc(Cl)cc4)CC3)cc2)CC1 [Example 5, N-[(4-{acetyl[2-(phenylthio)ethyl]amino}piperidin-1-yl)sulfonyl]-4-{4-[(4′-chloro-1,1′-biphenyl-2-yl)methyl]piperazin-1-yl}benzamide] | 176 |
| Cc1cc(C)n2nc(S(=O)(=O)NC(=O)c3ccc(N4CCN(CC5=C(c6ccc(Cl)cc6)CC(C)(C)CC5)CC4)cc3Oc3cc4cc[nH]c4cc3F)nc2n1 [Example 41, 4-(4-{[2-(4-chlorophenyl)-4,4-dimethylcyclohex-1-en-1-yl]methyl}piperazin-1-yl)-N-[(5,7-dimethyl[1,2,4]triazolo[1,5-a]pyrimidin-2-yl)sulfonyl]-2-[(6-fluoro-1H-indol-5-yl)oxy]benzamide] | 0.053 |
| Cc1noc(C)c1S(=O)(=O)NC(=O)c1ccc(N2CCN(Cc3ccccc3-c3ccc(Cl)cc3)CC2)cc1 [Example 32, 4-{4-[(4′-chloro-1,1′-biphenyl-2-yl)methyl]piperazin-1-yl}-N-[(3,5-dimethylisoxazol-4-yl)sulfonyl]benzamide] | 438 |
| Cc1nn(C)c(Cl)c1S(=O)(=O)NC(=O)c1ccc(N2CCN(Cc3ccccc3-c3ccc(Cl)cc3)CC2)cc1 [Example 29, 4-{4-[(4′-chloro-1,1′-biphenyl-2-yl)methyl]piperazin-1-yl}-N-[(5-chloro-1,3-dimethyl-1H-pyrazol-4-yl)sulfonyl]benzamide] | 340 |
